Results: patent US20170107235A1, “PYRROLOBENZ[…] FOR TREATING LYMPHOMA” (ADC PRODUCTS (UK) LIMITED, priority 2014, published 2017)
Where “and” joins values, the source holds several entries; their conditions need not be identical. Identical values can stand only once.

Tested on: dogs with spontaneous malignancies (lymphoma)
Experiment: Phase Ia clinical trial of SG2000 in dogs with spontaneous malignancies (lymphoma patients)
Type: in vivo
Design: key to Response during first cycle / Response to SG2000: Complete response (CR) is defined as the disappearance of all target lesions; Partial response (PR) is defined as a >30% decrease in the sum of the longest dimensions of the target lesions; Progressive disease (PD) is defined as a >20% increase in the sum of the longest dimensions of the target lesions; Stable Disease (SD) is defined as neither sufficient shrinkage to qualify for PR nor sufficient increase to qualify for PD
Experimental: A Phase Ia clinical trial in dogs with spontaneous malignancies was undertaken at the Royal Veterinary College, University of London, UK.
was supplied in 5 mL vials, wherein each mL contains 10 micrograms of SG2000 and 47.1 mg of dimethylacetamide. For doses below 100 microgram, the required volume of SG2000 was diluted to 10 ml with normal saline (0.9% sodium chloride) prior to administration. If the total dose exceeds 100 micrograms, the supplied solution was used without prior dilution with normal saline.
SG2000 was administered as a slow intravenous infusion into a peripheral vein. The drug was be administered slowly IV over 20 minutes via a peripheral vein catheter. If the drug has been diluted to a total volume of 10 ml, this will mean injecting 0.5 ml per minute.
The following concomitant/supportive medications permitted during the trial were:
The following definitions are used in reporting the results:
Complete response (CR) is defined as the disappearance of all target lesions.
Partial response (PR) is defined as a >30% decrease in the sum of the longest dimensions of the target lesions, taking as a reference the baseline sum longest dimensions.
Progressive disease (PD) is defined as a >20% increase in the sum of the longest dimensions of the target lesions, taking as a reference the smallest sum of the longest dimensions recorded since the treatment started, or the appearance of 1 or more new lesions.
Stable Disease (SD) is defined as neither sufficient shrinkage to qualify for PR nor sufficient increase to qualify for PD, taking as a reference the smallest sum of the longest dimensions since the treatment started.
Objective Response Rate (ORR) is defined as the number of patients with confirmed complete or partial responses, expressed as a percentage of all patients treated with SG2000
Time to Progression (TTP) is defined as the period of time from first date of treatment to the date that the patient is withdrawn because of clinical or imaging-based progressive disease, or death from any cause (including euthanasia).
“Duration of Response” is defined for patients with an objective response only.
This patient, diagnosed with multicentric B-cell high grade lymphoma, had been previously treated with 5 protocols. This patient was treated for a first cycle (3 weeks) with IV 1.75 μg/kg SG2000 solution with a single weekly dose. […] The second cycle of treatment followed with IV 2.00 μg/kg SG2000 with a single weekly dose. The third cycle of weekly dosing was begun after a single week break, with doses of 2.00 μg/kg SG2000, 1.75 μg/kg SG2000 and 2.00 μg/kg SG2000.
Patients 2 to 9 were treated as follows, with the stated amount of SG2000 (μg/kg), with a 3 weekly cycle of weekly treatments, and a single break week between cycles.
Patients 2, 4-5 were diagnosed with multicentric B-cell high grade lymphoma, Patients 3, 8 and 9 were diagnosed with multicentric B-cell intermediate grade lymphoma and Patient 6 was diagnosed with multicentric T-cell high grade lymphoma. Patient 7 was diagnosed with multicentric and mediastinal high grade lymphoma, which was suspected to be to be T-cell lymphoma.

[1] = Patient 1, dog, multicentric B-cell high grade lymphoma
[2] = Patient 1, dog, multicentric B-cell high grade lymphoma, IV 1.75-2.00 μg/kg weekly, 3 cycles
[3] = dogs with multicentric lymphoma, Patients 2 to 9, IV 1.5-2 μg/kg weekly

C=C1C[C@H]2C=Nc3cc(OCCCOc4cc5c(cc4OC)C(=O)N4CC(=C)C[C@H]4C=N5)c(OC)cc3C(=O)N2C1 [SG2000]
Progression free interval with treatment [1]: 111 days | Survival time since the start of the SG2000 trial [1]: 126 days | Patient response at the end of the planned 3 cycles [2]: PD (Progressive disease (PD) is defined as a >20% increase in the sum of the longest dimensions of the target lesions) | Toxicity at the end of the planned 3 cycles [2]: grade 4 anaemia | Disease course in the planned three week break after first cycle (Patient 1, dog, multicentric B-cell high grade lymphoma, after first cycle IV 1.75 μg/kg weekly): the disease progressed | Response during first cycle (Patient 1, dog, multicentric B-cell high grade lymphoma, first cycle (3 weeks) IV 1.75 μg/kg single weekly dose): SD | Survival time from diagnosis (Patient 1, dog, multicentric B-cell high grade lymphoma, previously treated with 5 protocols): 408 days | Progression free interval [3]: 10 d (2×) and 56 d and 54 d and 7 d and 158 d and 43 d | Survival time from SG2000 start [3]: 24 days and 74 days and 16 days and 95 days and 8 days and 195 days and 49 days | Survival time from diagnosis [3]: 31 days and 186 days and 252 days and 336 days and 141 days and 811 days and 138 days | Response to SG2000 (dogs with multicentric lymphoma, Patients 2 to 9, IV 1.5-2 μg/kg weekly, 3 weekly cycles): PD (Progressive disease (PD) is defined as a >20% increase in the sum of the longest dimensions of the target lesions) (3×) and SD (2×) and PR (Partial response (PR) is defined as a >30% decrease in the sum of the longest dimensions of the target lesions) (2×) and CR
